Literature values in patent US20250375478A1, “THERAPEUTIC COMPOSITION, ASSEMBLY KIT AND METHOD FOR THE TREATMENT OF DRY EYE DISEASE AND PROMOTION OF OCULAR HEALTH” (PReye, LLC, priority 2025, published 2025).

Settings: ferulic acid combined in solution with Vitamin C

stabilization of Vitamin C: up to 90%
Structure (SMILES): COc1cc(/C=C/C(=O)O)ccc1O [Ferulic acid]
